In ChEMBL document CHEMBL1201862, “PubChem BioAssay data set” (2004):
Active and inactive are the calls of the source.

Key:
[1] = biological target: Endoplasmic reticulum aminopeptidase 1 (Homo sapiens, UniProt Q9NZ08); experiment: ERAP1 aminopeptidase inhibitors, dose response, biochemical, cherry-pick, set 2, plate reader (AID 743314)
[2] = biological target: 1-phosphatidylinositol 4,5-bisphosphate phosphodiesterase gamma-1 (Homo sapiens, UniProt P19174); experiment: Counterscreen for inhibitors of phospholipase C isozymes (PLC-B3): Fluorescence-based biochemical high throughput dose response assay to identify inhibitors of phospholipase C isozymes (PLC-gamma1).
1-phosphatidylinositol 4,5-bisphosphate phosphodiesterase gamma-1, sequence (P19174 whole entry): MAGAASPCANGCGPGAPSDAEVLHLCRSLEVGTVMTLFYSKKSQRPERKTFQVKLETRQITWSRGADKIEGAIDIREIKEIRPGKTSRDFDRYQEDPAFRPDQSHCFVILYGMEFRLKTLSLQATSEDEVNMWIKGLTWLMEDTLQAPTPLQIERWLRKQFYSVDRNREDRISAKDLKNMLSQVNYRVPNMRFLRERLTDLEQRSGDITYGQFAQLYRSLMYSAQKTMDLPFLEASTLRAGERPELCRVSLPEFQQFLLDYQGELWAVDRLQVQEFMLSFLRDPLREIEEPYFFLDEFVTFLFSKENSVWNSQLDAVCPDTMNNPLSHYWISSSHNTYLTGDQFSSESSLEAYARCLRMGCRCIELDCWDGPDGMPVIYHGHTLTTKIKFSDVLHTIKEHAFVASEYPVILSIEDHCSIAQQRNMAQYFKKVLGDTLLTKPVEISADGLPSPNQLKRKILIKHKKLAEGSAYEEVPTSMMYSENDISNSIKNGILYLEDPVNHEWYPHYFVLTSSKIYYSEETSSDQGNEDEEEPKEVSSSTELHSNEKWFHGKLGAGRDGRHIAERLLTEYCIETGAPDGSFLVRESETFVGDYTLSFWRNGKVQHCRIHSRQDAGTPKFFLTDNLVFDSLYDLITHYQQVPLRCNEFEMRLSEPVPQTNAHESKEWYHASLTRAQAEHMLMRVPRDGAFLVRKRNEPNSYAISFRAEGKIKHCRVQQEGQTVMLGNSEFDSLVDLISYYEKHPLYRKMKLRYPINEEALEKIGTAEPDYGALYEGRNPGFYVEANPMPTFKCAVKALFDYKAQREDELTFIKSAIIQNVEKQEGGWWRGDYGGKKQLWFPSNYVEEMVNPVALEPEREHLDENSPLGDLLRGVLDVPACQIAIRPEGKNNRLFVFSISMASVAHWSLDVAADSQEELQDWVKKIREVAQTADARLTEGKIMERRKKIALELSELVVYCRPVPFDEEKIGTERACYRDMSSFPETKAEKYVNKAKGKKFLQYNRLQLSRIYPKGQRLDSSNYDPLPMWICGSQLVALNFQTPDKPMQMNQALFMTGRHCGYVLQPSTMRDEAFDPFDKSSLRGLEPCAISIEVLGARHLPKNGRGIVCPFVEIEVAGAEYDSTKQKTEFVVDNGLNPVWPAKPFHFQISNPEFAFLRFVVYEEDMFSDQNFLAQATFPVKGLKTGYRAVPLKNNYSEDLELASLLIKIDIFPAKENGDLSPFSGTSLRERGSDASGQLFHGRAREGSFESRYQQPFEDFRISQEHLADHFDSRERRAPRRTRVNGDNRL

[3] = biological target: 1-phosphatidylinositol 4,5-bisphosphate phosphodiesterase beta-3 (Homo sapiens, UniProt Q01970); experiment: Fluorescence-based biochemical high throughput dose response assay to identify inhibitors of phospholipase C isozymes (PLC-B3).
1-phosphatidylinositol 4,5-bisphosphate phosphodiesterase beta-3, sequence (Q01970 whole entry, the tested form may be a part): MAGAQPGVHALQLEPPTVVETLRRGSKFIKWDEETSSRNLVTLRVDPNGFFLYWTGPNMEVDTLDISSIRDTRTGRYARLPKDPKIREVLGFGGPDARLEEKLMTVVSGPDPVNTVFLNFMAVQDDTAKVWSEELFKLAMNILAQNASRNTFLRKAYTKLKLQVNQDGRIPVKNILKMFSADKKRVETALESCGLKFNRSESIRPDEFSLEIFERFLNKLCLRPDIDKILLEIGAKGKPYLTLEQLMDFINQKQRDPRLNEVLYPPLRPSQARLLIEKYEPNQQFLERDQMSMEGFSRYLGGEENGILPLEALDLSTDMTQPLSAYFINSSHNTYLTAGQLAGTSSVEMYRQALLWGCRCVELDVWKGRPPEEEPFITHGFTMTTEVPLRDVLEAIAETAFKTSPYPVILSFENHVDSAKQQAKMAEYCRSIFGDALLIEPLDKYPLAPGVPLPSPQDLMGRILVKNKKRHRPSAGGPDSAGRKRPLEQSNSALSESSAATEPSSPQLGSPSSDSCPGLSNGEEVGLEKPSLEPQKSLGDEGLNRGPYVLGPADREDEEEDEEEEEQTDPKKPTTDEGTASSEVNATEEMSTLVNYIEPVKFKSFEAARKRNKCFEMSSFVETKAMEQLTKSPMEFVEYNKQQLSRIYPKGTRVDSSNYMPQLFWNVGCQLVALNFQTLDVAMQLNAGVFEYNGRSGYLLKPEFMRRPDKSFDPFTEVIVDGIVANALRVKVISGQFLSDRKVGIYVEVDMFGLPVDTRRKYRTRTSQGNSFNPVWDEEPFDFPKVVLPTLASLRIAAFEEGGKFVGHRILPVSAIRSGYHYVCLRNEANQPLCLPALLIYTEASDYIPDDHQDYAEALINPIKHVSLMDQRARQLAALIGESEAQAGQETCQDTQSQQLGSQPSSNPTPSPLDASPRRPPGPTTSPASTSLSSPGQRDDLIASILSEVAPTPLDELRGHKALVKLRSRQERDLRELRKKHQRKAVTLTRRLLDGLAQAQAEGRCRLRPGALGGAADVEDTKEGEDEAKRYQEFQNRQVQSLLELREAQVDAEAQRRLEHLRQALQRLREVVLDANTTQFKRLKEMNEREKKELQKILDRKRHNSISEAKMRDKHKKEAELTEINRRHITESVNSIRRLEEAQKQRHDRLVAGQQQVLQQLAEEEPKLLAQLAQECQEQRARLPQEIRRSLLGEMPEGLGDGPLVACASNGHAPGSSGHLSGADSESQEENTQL

[4] = biological target: Disintegrin and metalloproteinase domain-containing protein 17 (Homo sapiens, UniProt P78536); experiment: exosite inhibitors of ADAM17, dose response, biochemical (AID 743260)
[5] = ADAM10 protease inhibitors, dose response, selectivity assay for ADAM17 exosite inhibitor project, biochemical, FRET peptide substrate, recombinant human ADAM10 (AID 743259);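 also: ADAM10 enzyme cleaving a FRET peptide substrate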
[6] = biological target: T1, Oxysterols receptor LXR-beta (Homo sapiens, UniProt P55055); experiment: LXR agonists, Gal4 luciferase reporter, dose response, counter-screen for ssDAF-12 agonist project, cell-based, luminescence, HEK293, S. stercoralis campaign (AID 720737); format: functional; settings: read-out: IC50 (the source's name)
T1 sequence (P55055 whole entry): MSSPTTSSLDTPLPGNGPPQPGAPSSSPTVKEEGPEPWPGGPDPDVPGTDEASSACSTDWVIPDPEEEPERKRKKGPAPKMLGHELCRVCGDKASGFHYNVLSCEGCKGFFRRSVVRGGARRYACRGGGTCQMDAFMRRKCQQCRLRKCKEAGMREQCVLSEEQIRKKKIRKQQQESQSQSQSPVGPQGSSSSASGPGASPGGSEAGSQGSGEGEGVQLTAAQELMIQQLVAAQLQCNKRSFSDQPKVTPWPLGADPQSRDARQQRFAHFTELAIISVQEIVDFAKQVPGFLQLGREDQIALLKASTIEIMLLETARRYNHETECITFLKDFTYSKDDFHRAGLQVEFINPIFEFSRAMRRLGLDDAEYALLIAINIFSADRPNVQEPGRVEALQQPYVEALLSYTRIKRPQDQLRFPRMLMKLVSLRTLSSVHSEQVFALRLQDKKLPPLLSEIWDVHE

[7] = Luminescence-based cell-based high throughput dose response assay to identify activators of the DAF-12 from the parasite S. stercoralis (ssDAF-12).; format: functional
[8] = biological target: Cytochrome P450 2D6 (Homo sapiens, UniProt P10635);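 also: CYP2D6 member of a cytochrome P450 panel assay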
Cytochrome P450 2D6, sequence (P10635 whole entry): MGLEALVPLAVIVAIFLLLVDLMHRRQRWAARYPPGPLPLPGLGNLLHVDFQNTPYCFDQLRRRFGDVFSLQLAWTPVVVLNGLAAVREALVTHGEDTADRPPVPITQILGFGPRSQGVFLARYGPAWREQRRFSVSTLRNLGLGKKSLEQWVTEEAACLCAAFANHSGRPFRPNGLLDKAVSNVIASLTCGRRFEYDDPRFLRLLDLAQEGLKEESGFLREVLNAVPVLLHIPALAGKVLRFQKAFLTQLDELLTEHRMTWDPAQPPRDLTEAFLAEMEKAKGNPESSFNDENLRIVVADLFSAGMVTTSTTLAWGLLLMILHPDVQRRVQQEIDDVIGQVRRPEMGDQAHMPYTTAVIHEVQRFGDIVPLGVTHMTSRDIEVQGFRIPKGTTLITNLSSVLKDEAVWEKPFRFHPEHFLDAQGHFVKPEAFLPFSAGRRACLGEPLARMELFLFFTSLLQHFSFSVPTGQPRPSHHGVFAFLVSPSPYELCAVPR

[9] = biological target: T2, Sentrin-specific protease 6 (Homo sapiens, UniProt Q9GZR1); format: functional;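 also: Luminescence-based dose-response confirmatory assay of SENP6 inhibition, following up an ultra-high-throughput screen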
T2 sequence (Q9GZR1 whole entry): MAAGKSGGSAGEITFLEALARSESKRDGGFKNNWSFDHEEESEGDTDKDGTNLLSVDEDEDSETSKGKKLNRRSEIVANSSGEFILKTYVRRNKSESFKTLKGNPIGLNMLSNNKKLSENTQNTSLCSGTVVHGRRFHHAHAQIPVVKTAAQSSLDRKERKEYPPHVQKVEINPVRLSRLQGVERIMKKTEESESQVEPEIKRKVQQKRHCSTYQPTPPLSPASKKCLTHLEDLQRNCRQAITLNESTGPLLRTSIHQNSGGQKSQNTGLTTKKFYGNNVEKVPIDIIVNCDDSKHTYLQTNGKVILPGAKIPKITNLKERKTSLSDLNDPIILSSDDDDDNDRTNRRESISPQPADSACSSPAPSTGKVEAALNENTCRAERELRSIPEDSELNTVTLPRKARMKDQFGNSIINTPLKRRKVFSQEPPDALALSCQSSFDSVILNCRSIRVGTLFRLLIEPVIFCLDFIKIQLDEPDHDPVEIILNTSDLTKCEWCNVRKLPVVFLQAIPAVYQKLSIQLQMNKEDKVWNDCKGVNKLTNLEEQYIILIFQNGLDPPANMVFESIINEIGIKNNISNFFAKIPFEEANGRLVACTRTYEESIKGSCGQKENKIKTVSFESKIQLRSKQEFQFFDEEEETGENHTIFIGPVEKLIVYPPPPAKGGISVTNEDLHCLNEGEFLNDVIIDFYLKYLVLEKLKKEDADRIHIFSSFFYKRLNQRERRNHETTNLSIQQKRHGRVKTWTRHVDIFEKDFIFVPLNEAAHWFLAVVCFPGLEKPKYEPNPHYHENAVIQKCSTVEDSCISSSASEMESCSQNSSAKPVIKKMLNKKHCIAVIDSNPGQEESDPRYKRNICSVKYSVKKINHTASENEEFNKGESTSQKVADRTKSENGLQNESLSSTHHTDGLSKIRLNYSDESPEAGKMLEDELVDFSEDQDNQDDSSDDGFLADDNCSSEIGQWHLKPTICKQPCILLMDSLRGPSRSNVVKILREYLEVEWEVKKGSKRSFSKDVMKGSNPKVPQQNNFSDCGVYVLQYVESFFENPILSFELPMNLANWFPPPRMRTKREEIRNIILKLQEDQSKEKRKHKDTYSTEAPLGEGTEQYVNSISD

[10] = biological target: T1, Oxysterols receptor LXR-beta; format: functional, cell-based
[11] = biological target: T3, Sentrin-specific protease 8 (Homo sapiens, UniProt Q96LD8); format: functional;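 also: luminescence read-out of SENP8 inhibition, dose-response confirmation following an ultra-high-throughput screen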
T3 sequence (Q96LD8 whole entry): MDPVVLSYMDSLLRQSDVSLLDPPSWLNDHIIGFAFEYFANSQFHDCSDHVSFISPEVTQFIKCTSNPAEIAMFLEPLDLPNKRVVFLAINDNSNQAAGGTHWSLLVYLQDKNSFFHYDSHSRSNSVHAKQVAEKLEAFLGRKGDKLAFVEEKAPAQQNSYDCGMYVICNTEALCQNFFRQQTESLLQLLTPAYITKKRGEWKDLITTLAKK

[12] = biological target: T4, Caspase-3 (Homo sapiens, UniProt P42574); format: functional;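 also: Dose-response selectivity test against caspase-3 for candidate inhibitors of sentrin-specific proteases (SENPs)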
T4 sequence (P42574 whole entry): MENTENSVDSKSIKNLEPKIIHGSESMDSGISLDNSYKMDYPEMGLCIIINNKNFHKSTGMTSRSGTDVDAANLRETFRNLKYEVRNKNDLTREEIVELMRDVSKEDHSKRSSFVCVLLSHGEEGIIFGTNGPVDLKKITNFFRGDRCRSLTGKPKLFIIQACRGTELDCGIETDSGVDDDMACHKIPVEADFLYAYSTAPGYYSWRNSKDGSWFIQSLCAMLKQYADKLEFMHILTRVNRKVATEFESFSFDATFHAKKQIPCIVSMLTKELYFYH

[13] = biological target: Cytochrome P450 2C9 (Homo sapiens, UniProt P11712)
Cytochrome P450 2C9, sequence (P11712 whole entry): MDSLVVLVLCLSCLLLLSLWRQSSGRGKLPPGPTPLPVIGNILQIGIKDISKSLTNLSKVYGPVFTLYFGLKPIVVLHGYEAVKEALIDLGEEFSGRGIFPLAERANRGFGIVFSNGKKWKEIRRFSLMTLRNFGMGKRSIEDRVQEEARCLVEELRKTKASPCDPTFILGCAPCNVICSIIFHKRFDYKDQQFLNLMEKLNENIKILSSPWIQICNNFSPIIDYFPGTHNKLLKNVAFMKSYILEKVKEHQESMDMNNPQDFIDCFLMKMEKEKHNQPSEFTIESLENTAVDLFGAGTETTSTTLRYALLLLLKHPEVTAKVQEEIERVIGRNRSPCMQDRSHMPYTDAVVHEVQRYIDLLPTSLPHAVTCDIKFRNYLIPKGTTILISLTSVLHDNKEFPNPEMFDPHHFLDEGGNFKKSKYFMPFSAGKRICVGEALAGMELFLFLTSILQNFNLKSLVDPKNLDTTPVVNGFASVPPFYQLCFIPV

[14] = biological target: T5, Sentrin-specific protease 7 (Homo sapiens, UniProt Q9BQF6); format: functional;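 also: Luminescence-based dose-response confirmation of ultra-high-throughput screening hits, measuring inhibition of SENP7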
T5 sequence (Q9BQF6 whole entry): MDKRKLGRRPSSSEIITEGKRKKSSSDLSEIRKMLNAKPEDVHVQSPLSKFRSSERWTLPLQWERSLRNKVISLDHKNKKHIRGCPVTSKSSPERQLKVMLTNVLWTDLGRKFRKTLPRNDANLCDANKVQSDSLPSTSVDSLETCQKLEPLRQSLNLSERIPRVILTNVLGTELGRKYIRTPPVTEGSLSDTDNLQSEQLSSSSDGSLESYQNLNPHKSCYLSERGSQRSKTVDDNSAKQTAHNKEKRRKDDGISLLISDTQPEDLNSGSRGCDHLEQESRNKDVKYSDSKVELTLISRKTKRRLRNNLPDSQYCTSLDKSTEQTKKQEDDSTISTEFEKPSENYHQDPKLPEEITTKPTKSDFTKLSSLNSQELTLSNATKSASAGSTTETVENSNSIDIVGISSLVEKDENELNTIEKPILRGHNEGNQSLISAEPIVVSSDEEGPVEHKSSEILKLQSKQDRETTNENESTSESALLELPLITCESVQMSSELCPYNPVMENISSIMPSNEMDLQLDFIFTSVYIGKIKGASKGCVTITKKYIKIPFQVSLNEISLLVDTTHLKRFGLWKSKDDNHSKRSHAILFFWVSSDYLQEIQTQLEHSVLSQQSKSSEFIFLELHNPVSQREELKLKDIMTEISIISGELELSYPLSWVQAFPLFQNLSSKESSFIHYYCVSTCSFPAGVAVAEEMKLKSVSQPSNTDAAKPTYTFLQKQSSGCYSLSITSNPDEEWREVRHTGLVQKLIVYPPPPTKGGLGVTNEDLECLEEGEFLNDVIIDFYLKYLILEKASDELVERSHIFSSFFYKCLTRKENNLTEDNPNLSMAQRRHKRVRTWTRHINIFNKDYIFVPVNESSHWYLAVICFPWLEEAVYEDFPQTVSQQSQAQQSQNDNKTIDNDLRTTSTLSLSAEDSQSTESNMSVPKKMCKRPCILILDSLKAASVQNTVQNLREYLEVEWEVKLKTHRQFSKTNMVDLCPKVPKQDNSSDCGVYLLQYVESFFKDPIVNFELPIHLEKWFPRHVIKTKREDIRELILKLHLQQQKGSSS

Endoplasmic reticulum aminopeptidase 1, sequence (Q9NZ08 whole entry): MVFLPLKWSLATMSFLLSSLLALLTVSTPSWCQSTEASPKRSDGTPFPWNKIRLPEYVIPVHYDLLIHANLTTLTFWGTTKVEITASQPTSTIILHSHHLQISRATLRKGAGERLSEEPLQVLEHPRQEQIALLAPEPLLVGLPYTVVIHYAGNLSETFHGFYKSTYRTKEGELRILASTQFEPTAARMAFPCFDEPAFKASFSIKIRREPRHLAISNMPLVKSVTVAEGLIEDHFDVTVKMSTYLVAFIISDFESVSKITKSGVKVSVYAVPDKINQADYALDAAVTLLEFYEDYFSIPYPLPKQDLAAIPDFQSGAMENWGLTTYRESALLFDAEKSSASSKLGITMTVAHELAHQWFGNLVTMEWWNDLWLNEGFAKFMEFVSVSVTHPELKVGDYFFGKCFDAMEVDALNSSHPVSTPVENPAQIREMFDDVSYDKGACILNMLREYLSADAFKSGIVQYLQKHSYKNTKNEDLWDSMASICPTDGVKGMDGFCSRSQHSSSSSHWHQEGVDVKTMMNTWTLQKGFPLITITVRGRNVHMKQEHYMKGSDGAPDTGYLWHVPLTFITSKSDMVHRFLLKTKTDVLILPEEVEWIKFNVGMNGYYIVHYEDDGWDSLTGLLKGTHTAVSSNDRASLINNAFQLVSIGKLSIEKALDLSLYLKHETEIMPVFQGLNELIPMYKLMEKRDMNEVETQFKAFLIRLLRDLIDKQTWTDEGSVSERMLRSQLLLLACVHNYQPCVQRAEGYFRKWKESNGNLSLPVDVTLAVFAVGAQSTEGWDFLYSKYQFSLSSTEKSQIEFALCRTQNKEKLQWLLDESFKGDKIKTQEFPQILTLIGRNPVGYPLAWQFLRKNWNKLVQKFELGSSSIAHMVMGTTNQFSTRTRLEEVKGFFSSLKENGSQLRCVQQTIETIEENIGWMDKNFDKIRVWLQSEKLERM

For `Cc1cc(=O)oc2c(CN3CCCC3)c(O)ccc12`, the AC50 [1] was 11.8 µM (active).

For `COc1ccnc2c1c(=O)n(Cc1ccc(Cl)cc1Cl)c(=O)n2C`, the IC50 [2] was > 122 µM (inactive) and the IC50 [3] was > 122 µM (inactive).

In the case of `Cc1ccc(C2=NS(=O)(=O)N(C)C(C(=O)Nc3ccc4c(c3)OCO4)=C2)cc1`, the IC50 [4] is reported as > 69.5 µM (inactive) and the IC50 [5] is reported as 19 µM (inactive).

In the case of `CCOc1ccccc1-n1nnnc1SCc1nc2ccccc2s1`, the EC50 [6] is reported as > 67.5 µM (inactive) and the IC50 [7] is reported as > 67.5 µM (inactive).

In the case of `O=[N+]([O-])c1cccnc1NCCNc1ncc(C(F)(F)F)cc1Cl`, the AC50 [8] is reported as 14.1 µM (inconclusive), the IC50 [9] is reported as 19.1 µM (active) and the EC50 [10] is reported as > 67.5 µM (inactive). The IC50 [11] was 23.3 µM (active), the IC50 [12] was 28.7 µM (active) and the AC50 [13] was “inconclusive”. The IC50 [14] was 6.52 µM (active).
